Data published in patent publication US6972319B1, “Pituitary adenylate cyclase activating peptide (PACAP)receptor 3 (R3) agonists and their pharmacological methods of use” (priority 1999, dated 2005).
No end group written: not given here.

Key:
PACAP-R3 = molecular target: T1, PACAP-R3 (Homo sapiens, UniProt P41587); assay: Cyclic AMP SPA on CHO cells expressing PACAP R3; type: cell-based; set-up: expressed in transfected cells; host or cells: CHO cells (Geneticin selection); conditions: for EC50: cAMP SPA, CHO cells transfected with PACAP-R3, concentration at which 50% of maximum PACAP27 activity is achieved, NA = no detectable activities, read-out: R3 EC50; for R3 Selectivity: ratio of EC50 at R2 versus EC50 at R3
T1 sequence (P41587 24-438): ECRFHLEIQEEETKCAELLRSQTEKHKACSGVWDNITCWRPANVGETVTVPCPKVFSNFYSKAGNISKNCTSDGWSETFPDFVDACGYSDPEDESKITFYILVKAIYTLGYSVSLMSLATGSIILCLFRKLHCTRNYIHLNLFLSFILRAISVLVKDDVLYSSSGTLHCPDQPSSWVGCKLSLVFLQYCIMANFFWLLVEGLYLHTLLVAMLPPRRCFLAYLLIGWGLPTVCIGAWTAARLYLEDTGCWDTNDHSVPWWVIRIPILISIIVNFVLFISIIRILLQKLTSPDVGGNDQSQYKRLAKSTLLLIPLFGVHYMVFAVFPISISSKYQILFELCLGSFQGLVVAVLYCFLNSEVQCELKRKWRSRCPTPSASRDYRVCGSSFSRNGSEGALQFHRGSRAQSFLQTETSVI
How it was run: (§1)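 Potency reflects cyclic AMP accumulation, determined by SPA, after a 15 min, 37 C peptide exposure of CHO cells carrying the human receptor. Values are expressed relative to the maximal PACAP27 effect, with EC50 taken at its 50% level.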

PACAP-R2 = molecular target: T2, PACAP-R2 (Homo sapiens, UniProt P32241); assay: Cyclic AMP SPA on CHO cells transfected with PACAP-R2; type: cell-based; conditions: cAMP SPA, concentration at which 50% of maximum PACAP27 activity is achieved, NA = no detectable activities, read-out: R2 EC50
T2 construct: expressed in transfected cells; host or cells: CHO cells
T2 sequence (P32241 31-457): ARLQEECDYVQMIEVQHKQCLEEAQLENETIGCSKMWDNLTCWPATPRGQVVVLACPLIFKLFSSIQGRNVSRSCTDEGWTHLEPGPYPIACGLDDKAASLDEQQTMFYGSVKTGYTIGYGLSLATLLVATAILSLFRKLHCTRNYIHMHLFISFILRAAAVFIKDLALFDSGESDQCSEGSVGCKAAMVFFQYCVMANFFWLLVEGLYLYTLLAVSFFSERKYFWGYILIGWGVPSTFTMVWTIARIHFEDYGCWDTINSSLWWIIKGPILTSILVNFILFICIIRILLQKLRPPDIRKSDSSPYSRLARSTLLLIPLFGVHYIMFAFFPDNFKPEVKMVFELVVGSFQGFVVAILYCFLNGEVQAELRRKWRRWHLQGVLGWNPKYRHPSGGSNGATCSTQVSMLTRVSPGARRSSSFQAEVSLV
How it was run: as §1

| Substance | EC50 (PACAP-R3) [nM] | R3 Selectivity (PACAP-R3) | EC50 (PACAP-R2) [nM] |
| --- | --- | --- | --- |
| HSDAVFTDNYTRLRKQMAAKKYLNSIKKKRY [Peptide R3P52] | 0.4 | >250 | > 100 |
| HSDAVFTDNYTRLRKQMAAKKYLNSILN [Peptide R3P47] | 0.12 | 6 | 0.7 |
| HSDAVFTDNYTRLRKQVAAKKYLNSIKNKRY [Peptide R3P79] | – | 200 | 100 |
| HSDAVFTDNYTRLRKQMAAKKYLNSIHNKR [Peptide R3P122] | 0.2 | 50 | 10 |
| HSDAVFTDNYTRLRKQMAAKKYLNSIKNQR [Peptide R3P146] | 0.3 | 100 | 30 |
| HSDAVFTDNYTRLRKQLAVKKYLNSILN [Peptide R3P46] | 0.06 | 7 | 0.4 |
| HSDAVFTDNYTRLRKQMAAKKYLNSITNKR [Peptide R3P130] | 1 | 40 | 40 |
| HSDAVFTDQYTRLRKQLAAHKYLNTIKNKRY [Peptide R3P75] | 0.3 | >500 | > 150 |
| HSDAVFTDNYTRLRKQMAAKKYLNSIKNKR [Peptide R3P65] | 0.6 | 130 | 80 |
| HSDAVFTDNYTRLRKQMAEKKYLNSIKNKR [Peptide R3P99] | 1 | 40 | 40 |
| HSDAVFTDNYTRLRKQMAAKKYLNSIKNSR [Peptide R3P148] | 0.3 | 100 | 30 |
| HSDAVFTDNYTRLRKQLAVKKYLNDIKNGGT [Peptide R3P29] | 0.5 | >200 | > 100 |
| HSDAVFTDNYTRLRKQIAAKKYLQTIKK [Peptide R3P61] | 0.8 | 140 | 110 |
| HSDAVFTDNYTRLRKQMAAKKYLNSIFNKR [Peptide R3P120] | 0.2 | 50 | 10 |
| HSDAVFTDNYTRLRKQVAVKKYLQSILKK [Peptide R3P89] | 0.06 | 15 | 0.9 |
| HSDAVFTDNYTRLRKQMAAKKYLNSIKNGR [Peptide R3P139] | 0.4 | 50 | 20 |
| HSDAVFTDNYTRLRKQMAVKKYLNDLKKGGT [Peptide R3P14] | 17 | 3 | 50 |
| HSDAVFTDNYTRLRKQMASKKYLNSIQNRI [rR3P188] | 2.2 | 70 | 150 |
| H-HSDAVFTDNYTRLRKQMAAKKYLNDIKKGGT [Peptide R3P20] | 1.4 | 230 | 330 |
| HSDKIFTDSYSRYRKQMAVKKYLAAVL-NH2 [PAC4] | 7 | 6 | 45 |
| HSDGIFTDSYSRYRKQMAVKKKLAAVL-NH2 [PAC22] | 15 | 0.1 | 2 |
| HSDAVFTDNYTRLRKQVAAKKYLQSILNKR [Peptide R3P93] | 0.14 | 40 | 6 |
| H-HSDAVFTDNYTRLRKQMAAKKYLNSIDNKR [Peptide R3P118] | 0.5 | 30 | 15 |
| HSDAVFTDNYTRLRKQMAGKKYLNSIKNRI [rR3P175] | 2.2 | 180 | 400 |
| HSDGIFTDSYSRYRKQMAVKKYLSAVRHGQT-NH2 [Peptide R3P15] | 5 | 2 | 12 |
